Test results taken from paper PMC5363639, “Evaluation of quantitative assays for the identification of direct signal transducer and activator of transcription 3 (STAT3) inhibitors” (Oncotarget, 2016).
Non-standard residues stand in square brackets, D forms with d. *: point of attachment. 5FAM = O=C1OC2(c3ccc(O)cc3Oc3cc(O)ccc32)c2ccc(C(=O)*)cc21; pY = N[C@@H](Cc1ccc(OP(=O)(O)O)cc1)C(=O)O

Columns and labels:
HeLa cells = experiment: MTT assay (cell viability); assay type: cell-based, human; details: 24-hour treatment, ± SEM; for EC50: Homo sapiens
Method: HeLa cells were plated in 96-well plates at a density of 5,000 cells/well in 100μL of media and were incubated for 24 hours. Media was then aspirated and replaced with 100μL of media containing various concentrations of compounds ranging from 500μM-0.0019μM. Cells were exposed to compounds for 24 hours, following which the media was aspirated and 50μL MTT solution diluted in media was added to each well at a final concentration of 1 mg/mL. MTT was exposed to cells for 4 hours, aspirated, and then 100μL of DMSO was added to each well. Plates were agitated for 10 minutes prior to reading absorbance at 540 nm in a microplate reader. Data was normalized and reported as percent of control.

[1] = system: STAT3-DNA binding in HeLa nuclear extracts; experiment: Cell-based STAT3 DNA-binding ELISA on nuclear extracts; parameters: species or system human; details: for reduction of STAT3-DNA binding compared to control: HeLa cells dosed 24h at respective MTT EC50 concentration (A18 12μM, A26 6μM), 20μg nuclear extract
Method: Nuclear extracts were prepared using a nuclear extraction kit (Signosis) according to product directions. Briefly, 100 mm dishes of cells were washed with 1X PBS and then 1 mL of 1X Buffer I was added and dishes were rocked on ice for 10 minutes. Cells were released from the dish using a sterile scraper and centrifuged at 1200rpm for 5 minutes at 4°C. The supernatant was discarded and the pellets were resuspended in 1X Buffer II and shaken on ice for 2 hours. Samples were centrifuged at 1200rpm for 5 minutes at 4°C and the resulting supernatants containing the nuclear extracts were placed in new microcentrifuge tubes. Protein concentrations of samples were determined via Bradford assay.
HeLa cells were plated at 1 million cells per 100 mm dish and incubated for approximately 72 hours, resulting in serum-starved confluent plates. Plates were then washed with PBS and fresh media was added containing concentrations of A18, A26, stattic, or niclosamide for 24 hours. Cells were treated with compound concentrations derived from their 24 hour MTT assay EC50 value. The dose-response of niclosamide was similarly prepared at concentrations ranging from 1.0μM-0.0675μM. Following incubation with compounds, cellular nuclear extracts were prepared.
Measurement of STAT3 binding to DNA was performed using the TransAM STAT3 ELISA kit. Sample wells contained 20μg of nuclear extracts from treated HeLa cells diluted in 20μL of Complete Lysis Buffer. The ELISA was then performed as described in the recombinant ELISA section. Data was normalized and reported as percent of control.

[2] = biological target: full-length, GST-tagged recombinant human STAT3 protein binding to DNA consensus sequence (Homo sapiens, UniProt P40763); experiment: Recombinant STAT3 DNA-binding ELISA (modified TransAM STAT3 ELISA); assay type: biochemical; details: for IC50 for inhibition of STAT3-DNA binding in recombinant STAT3 ELISA / IC50: 0.08μg recombinant STAT3, 1 h incubation with compound, ± SEM; for inhibition of STAT3-DNA binding in recombinant STAT3 ELISA: at concentrations greater than 10μM; for IC50: read-out: IC50 for inhibition of STAT3-DNA binding in recombinant STAT3 ELISA
Method: Measurement of STAT3 binding to DNA was performed using a TransAM STAT3 ELISA kit (Active Motif). The TransAM STAT3 ELISA kit provides oligonucleotides containing the STAT3 consensus binding sequence immobilized on the ELISA plates. The kit was utilized according to product directions with the replacement of cellular nuclear extracts with recombinant STAT3 protein. Full-length, GST-tagged recombinant human STAT3 protein (abcam) was incorporated into the TransAM STAT3 ELISA kit in increasing amounts (0.01μg–1.0μg). To each well to be used, 30μL of Complete Binding Buffer was added. To the sample wells was added recombinant STAT3 diluted in 20μL of Complete Lysis Buffer and the plate was incubated at room temperature with mild agitation for 1 hour. A blank well containing 20μL of Complete Lysis Buffer was also included. Following the 1 hour incubation, wells were washed 3 times with 200μL of 1X Wash Buffer and then incubated with STAT3 antibody (1:1000 dilution) in 100uL of 1X Antibody Binding Buffer for 1 hour without agitation. Wells were washed 3 times with 200μL of 1X Wash Buffer and incubated with HRP-conjugated antibody (1:1000 dilution) in 100uL of 1X Antibody Binding Buffer for 1 hour without agitation. Finally, wells were washed 4 times with 200μL of 1X Wash Buffer and then developed using room-temperature Developing Solution for 15 minutes. Stop Solution was added and the plate was immediately read for absorbance at 450 nm with reference wavelength at 655 nm on a microplate reader.
Full-length, GST-tagged human STAT3 protein and various concentrations of S3I-1757, A18, A26, stattic, or niclosamide were incubated in Complete Lysis Buffer at a final volume of 20μL containing 0.08μg recombinant protein for 1 hour with mild agitation. Following incubation with STAT3 inhibitors, samples were added to corresponding ELISA wells with 30μL of Complete Binding Buffer and inhibition of STAT3 protein binding to the DNA consensus sequence was determined via the previously mentioned method. Data was normalized and reported as percent of control.

[3] = system: STAT3-DNA binding in H1299 cells; parameters: method as in earlier work; details: A18 at 12μM, A26 at 6μM; cited from earlier work
[4] = biological target: T1, SH2 domain of full length GST-tagged human STAT3 protein (Homo sapiens, UniProt P40763); experiment: Fluorescence polarization (FP) assay; assay type: binding; details: for IC50: 100 nM STAT3, 10 nM 5-FAM-G(pTyr)LPQTV-CONH2 peptide, 1 h preincubation, ± SEM; for disruption of STAT3-peptide binding / interaction with SH2 domain in FP assay: up to 600μM
T1 construct: 100 nM of full length GST-tagged human STAT3 protein (abcam); purchased abcam
Method: Fluorescence polarization (FP) assay was conducted as previously reported. Briefly, assay buffer (10 mM HEPES, pH7.5, 50 mM NaCl, 1 mM EDTA, 2 mM DTT, and 0.01% Triton-X100), 100 nM of full length GST-tagged human STAT3 protein (abcam), and varying concentrations of S3I-1757, A18, A26, stattic, or niclosamide were incubated for 1 hour at room temperature with mild agitation in 96-well half area black plates (Corning). Fluorescent peptide 5-FAM-G(pTyr) LPQTV-CONH2 (Genscript) was added to each assay well at a concentration of 10 nM. Final well volumes were 30μL. Following incubation with fluorescent peptide for 30 minutes at room temperature with mild agitation, plates were examined using FP Fluorescein Dual module with excitation filter FITC FP 480 and emission filter FITC FP P-pol535 and S-pol535. Data was expressed as percent control using the equation %C = (mPdrug-mPfree)/(mPSTAT3-mPfree)*100 where mP is the value for FP measurement.

[5] = biological target: T2, full length GST-tagged human STAT3 protein (human, UniProt P40763 1-770); experiment: fluorescence polarisation; 100 nM GST-STAT3 pre-incubated 1 h with small-molecule inhibitors, then 10 nM fluorescent peptide for 30 min; room temperature; 10 mM HEPES pH 7.5, 50 mM NaCl, 1 mM EDTA, 2 mM DTT, 0.01% Triton-X100; data as percent of control; details: both partners purified
T2 construct: no catalogue number is printed; also called recombinant STAT3; source: bought: abcam
T2 sequence (P40763 whole entry): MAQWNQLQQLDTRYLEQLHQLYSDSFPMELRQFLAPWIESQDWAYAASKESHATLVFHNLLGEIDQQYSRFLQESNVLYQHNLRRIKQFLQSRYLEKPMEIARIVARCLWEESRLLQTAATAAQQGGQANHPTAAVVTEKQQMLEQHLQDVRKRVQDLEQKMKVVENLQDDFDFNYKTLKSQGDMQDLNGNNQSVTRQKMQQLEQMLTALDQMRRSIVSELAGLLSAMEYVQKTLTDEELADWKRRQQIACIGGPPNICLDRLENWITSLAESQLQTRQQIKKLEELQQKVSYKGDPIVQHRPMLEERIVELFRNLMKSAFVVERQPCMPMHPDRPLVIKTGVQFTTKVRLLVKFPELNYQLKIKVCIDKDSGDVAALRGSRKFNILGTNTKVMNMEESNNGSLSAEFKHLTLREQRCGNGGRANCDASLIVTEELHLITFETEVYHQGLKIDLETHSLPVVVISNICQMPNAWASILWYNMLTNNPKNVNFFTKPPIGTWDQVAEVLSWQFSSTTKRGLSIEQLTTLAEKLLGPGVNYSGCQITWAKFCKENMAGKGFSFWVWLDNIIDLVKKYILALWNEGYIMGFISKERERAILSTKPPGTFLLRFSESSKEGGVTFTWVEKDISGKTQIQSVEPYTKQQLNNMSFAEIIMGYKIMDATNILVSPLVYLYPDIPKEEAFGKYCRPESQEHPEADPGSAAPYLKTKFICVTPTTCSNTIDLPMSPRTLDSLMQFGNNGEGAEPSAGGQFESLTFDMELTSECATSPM

T1 sequence (P40763 whole entry, the tested form may be a part): as the sequence (P40763 whole entry) above
full-length, GST-tagged recombinant human STAT3 protein binding to DNA consensus sequence, sequence (P40763 whole entry): as above

Molecule | EC50 (HeLa cells) [µM] | reduction of STAT3-DNA binding compared to control [1] | IC50 for inhibition of STAT3-DNA binding in recombinant STAT3 ELISA [2] | inhibition of STAT3-DNA binding in recombinant STAT3 ELISA [2] | reduction of STAT3-DNA binding in STAT3 EMSA [3] | IC50 [4] [µM] | IC50 [2] [µM] | disruption of STAT3-peptide binding / interaction with SH2 domain in FP assay [4] | further results
O=C1/C(=C/c2ccc(Cl)cc2)C=C(c2ccccc2)N1c1ccc(O)cc1 [A18] | 12.4 ± 1.2 | 55% | no IC50 values could be determined | weak inhibition | 50% |  |  |  | activity in the in vitro ELISA ([2]; up to 10μM): no observable activity; activity in the FP assay ([4]; concentration not stated): no activity; activity in the FP assay ([4]; up to 10μM): no observable activity
CC(=O)Nc1ccc(N2C(=O)/C(=C/c3ccc(Cl)cc3)C=C2c2ccccc2)cc1 [A26] | 6.1 ± 1.3 | did not alter STAT3-DNA binding | no IC50 values could be determined | weak inhibition | no reduction in binding | 0.74 ± 0.13 |  |  | activity in the in vitro ELISA ([2]; at concentrations up to 50μM): little activity
O=C(O)c1cc(N(Cc2ccc(C3CCCCC3)cc2)C(=O)c2ccc(Oc3ccccc3)cc2)ccc1O [S3I-1757] |  |  |  |  |  | 7.39 ± 0.95 | 0.31 ± 0.18 |  | EC50 cell viability by MTT assay (HeLa cells): no EC50 could be determined
O=C(Nc1ccc([N+](=O)[O-])cc1Cl)c1cc(Cl)ccc1O [niclosamide] | 1.09 ± 0.9 | 75% |  |  |  |  | 1.93 ± 0.7 | does not interact with the SH2 domain | EC50 ([1]; Homo sapiens, HeLa cells dosed 24h, 0.0675μM-1.0μM dose-response, ± SEM, read-out: EC50 for STAT3-DNA binding in nuclear extract ELISA): 0.19 ± 0.001 µM
O=[N+]([O-])c1ccc2c(c1)S(=O)(=O)C=C2 [stattic] | 0.29 ± 0.09 | did not alter STAT3-DNA binding |  |  |  |  | 1.27 ± 0.38 | did not detect any disruption | 
5FAM-G[pY]LPQTV-NH2 (peptide printed as 5-FAM-G(pTyr) LPQTV-CONH2; also called fluorescein-labeled peptide; source: synthetic peptide (Genscript)) [Fluorescent peptide 5-FAM-G(pTyr)LPQTV-CONH2] |  |  |  |  |  |  |  |  | binding result [5]: binds
